Data taken from US20250092065A1, “2-(INDAZOL-5-YL)-6-(PIPERIDIN-4-YL)-1,7-NAPHTHYRIDINE DERIVATIVES AND RELATED COMPOUNDS AS MODULATORS FOR SPLICING NUCLEIC ACIDS AND FOR THE TREATMENT OF PROLIFERATIVE DISEASES” (REMIX THERAPEUTICS INC., priority 2022, published 2025).
Read-outs that look alike come from different tables or passages of the source.

Tested on: MYB mRNA
Test: RT-qPCR splicing assay, MYB mRNA canonical (CJ) and alternative (AJ) junction
Assay type: cell-based, human
Conditions: Homo sapiens; for AC50: MYB alternative junction mRNA, read-out: MYB AJ (increase in AJ mRNA, AC50)
Procedure, shortened: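 Canonical and alternative-exon junction isoforms were quantified by RT-qPCR in cell lysates, with ΔCt against a housekeeper (GAPDH/GUSB/PPIA), then ΔΔCt vs DMSO, converted to 2^(−ΔΔCt) and percent response. K562 or A673 cells were exposed for 24 h to 11 concentrations (3-fold, top final 10 uM).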

[1] = MYB canonical junction mRNA, RT-qPCR, read-out: MYB CJ (decrease in CJ mRNA levels, IC50)
[2] = canonical junction qPCR panel, Table 4, read-out: MYB IC50 (decrease in CJ mRNA levels)

| Structure (SMILES) | AC50 (RT-qPCR) | IC50 [1] | IC50 [2] |
| --- | --- | --- | --- |
| Cn1cc2cc(-c3ccc4nc(N5CCC(NCC6CC6)C5)ccc4n3)c(O)c(F)c2n1 (stereo not drawn) [Compound 387, 5-(6-{3-[(cyclopropylmethyl)amino]pyrrolidin-1-yl}-1,5-naphthyridin-2-yl)-7-fluoro-2-methylindazol-6-ol] | < 100 nM | < 100 nM | < 100 nM |
| CC(C)NC1CCN(c2ccc3nc(-c4cc5cn(C)nc5c(F)c4O)ccc3n2)C1 (stereo not drawn) [Compound 388, 7-fluoro-5-{6-[3-(isopropylamino)pyrrolidin-1-yl]-1,5-naphthyridin-2-yl}-2-methylindazol-6-ol] | < 100 nM | < 100 nM | < 100 nM |
| Cc1nc2cc(O)c(-c3ccc4nc(N5CCC(NCC6CC6)C5)ccc4n3)cc2o1 (stereo not drawn) [Compound 389, 6-(6-{3-[(cyclopropylmethyl)amino]pyrrolidin-1-yl}-1,5-naphthyridin-2-yl)-2-methyl-1,3-benzoxazol-5-ol] | < 100 nM | < 100 nM | < 100 nM |
| Cc1nc2c(C)c(O)c(-c3ccc4nc(N5CCC(NCC6CC6)C5)ccc4n3)cc2o1 (stereo not drawn) [Compound 390, 6-(6-{3-[(cyclopropylmethyl)amino]pyrrolidin-1-yl}-1,5-naphthyridin-2-yl)-2,4-dimethyl-1,3-benzoxazol-5-ol] | < 100 nM | < 100 nM | < 100 nM |
| CNC1CCN(c2ccc3nc(-c4cc(F)c5nc(C)cn5c4)ncc3n2)C1 (stereo not drawn) [Compound 393, 1-(2-{8-fluoro-2-methylimidazo[1,2-a]pyridin-6-yl}pyrido[3,2-d]pyrimidin-6-yl)-N-methylpyrrolidin-3-amine] | < 100 nM | < 100 nM | < 100 nM |
| Cc1c(O)c(-c2ncc3nc(C4CCNC4)ccc3n2)cc2cn(C)nc12 (stereo not drawn) [Compound 397, 2,7-dimethyl-5-[6-(pyrrolidin-3-yl)pyrido[3,2-d]pyrimidin-2-yl]indazol-6-ol; trifluoroacetic acid] | 100 to 1000 nM | 100 to 1000 nM | 100 to 1000 nM |
| Cc1c(O)c(-c2ncc3nc([C@H]4CCNC4)ccc3n2)cc2cn(C)nc12 [Compound 399] | 1000 to 10000 nM | 1000 to 10000 nM | 1000 to 10000 nM |
| Cn1cc2cc(-c3ncc4nc(C5CCNCC5)ccc4n3)c(O)c(C#N)c2n1 [Compound 403, 6-hydroxy-2-methyl-5-[6-(piperidin-4-yl)pyrido[3,2-d]pyrimidin-2-yl]indazole-7-carbonitrile; trifluoroacetic acid] | < 100 nM | 100 to 1000 nM | 100 to 1000 nM |
| Cn1cc2cc(-c3ccc4nc(N5CCC(NC(C)(C)C)C5)ncc4n3)c(O)cc2n1 (stereo not drawn) [Compound 404, 5-{2-[3-(tert-butylamino)pyrrolidin-1-yl]pyrido[3,2-d]pyrimidin-6-yl}-2-methylindazol-6-ol] | 100 to 1000 nM | 100 to 1000 nM | 100 to 1000 nM |
| COc1cc(-c2ccc3nc(N4CCC(NC(C)(C)C)C4)ncc3n2)cnn1 (stereo not drawn) [Compound 405, N-tert-butyl-1-[6-(6-methoxypyridazin-4-yl)pyrido[3,2-d]pyrimidin-2-yl]pyrrolidin-3-amine] | 1000 to 10000 nM | 1000 to 10000 nM | 1000 to 10000 nM |
| CN[C@H]1CCN(c2ccc3nc(-c4cc(C#N)c5nc(C)cn5c4)ncc3n2)C1 [Compound 406, 2-methyl-6-{6-[(3S)-3-(methylamino)pyrrolidin-1-yl]pyrido[3,2-d]pyrimidin-2-yl}imidazo[1,2-a]pyridine-8-carbonitrile] | 100 to 1000 nM | 1000 to 10000 nM | 1000 to 10000 nM |
| CN[C@@H]1CCN(c2ccc3nc(-c4cc(C#N)c5nc(C)cn5c4)ncc3n2)C1 [Compound 407, 2-methyl-6-{6-[(3R)-3-(methylamino)pyrrolidin-1-yl]pyrido[3,2-d]pyrimidin-2-yl}imidazo[1,2-a]pyridine-8-carbonitrile] | 100 to 1000 nM | 100 to 1000 nM | 100 to 1000 nM |
| Cc1nc2cc(O)c(-c3ccc4nc(N5CCNCC5)ccc4n3)cc2o1 [Compound 408, 2-methyl-6-[6-(piperazin-1-yl)-1,5-naphthyridin-2-yl]-1,3-benzoxazol-5-ol] | 100 to 1000 nM | 100 to 1000 nM | 100 to 1000 nM |
| Cc1nc2cc(O)c(-c3ccc4nc(N5CCN[C@@H](C)C5)ccc4n3)cc2o1 [Compound 409] | 100 to 1000 nM | 100 to 1000 nM | 100 to 1000 nM |
| Cc1nc2cc(O)c(-c3ccc4nc(N5CCN6CCCC6C5)ccc4n3)cc2o1 (stereo not drawn) [Compound 410] | 100 to 1000 nM | 100 to 1000 nM | 100 to 1000 nM |
| Cc1nc2cc(O)c(-c3ccc4nc(N5CCNC6(CC6)C5)ccc4n3)cc2o1 [Compound 411] | 100 to 1000 nM | 100 to 1000 nM | 100 to 1000 nM |

| Structure (SMILES) | AC50 (RT-qPCR) | IC50 [1] | IC50 [2] |
| --- | --- | --- | --- |
| Cc1nc2cc(O)c(-c3ccc4nc(N5CCC(NC(C)(C)C)CC5)ccc4n3)cc2o1 [Compound 412] | 100 to 1000 nM | 100 to 1000 nM | 100 to 1000 nM |
| Cc1nc2cc(O)c(-c3ccc4nc(N5CC[C@@H](NC(C)(C)C)C5)ncc4n3)cc2o1 [Compound 413, 6-{2-[(3R)-3-(tert-butylamino)pyrrolidin-1-yl]pyrido[3,2-d]pyrimidin-6-yl}-2-methyl-1,3-benzoxazol-5-ol] | < 100 nM | < 100 nM | < 100 nM |
| Cc1nc2cc(O)c(-c3ccc4nc(N5CC[C@H](NC(C)(C)C)C5)ncc4n3)cc2o1 [Compound 414, 6-{2-[(3S)-3-(tert-butylamino)pyrrolidin-1-yl]pyrido[3,2-d]pyrimidin-6-yl}-2-methyl-1,3-benzoxazol-5-ol] | 1000 to 10000 nM | 1000 to 10000 nM | 1000 to 10000 nM |
| Cc1nc2c(C)c(O)c(-c3ccc4nc(N5CC[C@H](NC(C)C)C5)ncc4n3)cc2o1 [Compound 416, 6-{2-[(3S)-3-(isopropylamino)pyrrolidin-1-yl]pyrido[3,2-d]pyrimidin-6-yl}-2,4-dimethyl-1,3-benzoxazol-5-ol] | < 100 nM | < 100 nM | < 100 nM |
| Cc1nc2cc(O)c(-c3ccc4cc(N5CC[C@@H](NC(C)(C)C)C5)ncc4n3)cc2o1 [Compound 417] | 100 to 1000 nM | 100 to 1000 nM | 100 to 1000 nM |
| Cc1nc2cc(O)c(-c3ccc4nc(N5CCN[C@@H](C6CC6)C5)ccc4n3)cc2o1 [Compound 418] | 100 to 1000 nM | 100 to 1000 nM | 100 to 1000 nM |
| Cc1nc2cc(O)c(-c3ccc4nc(N5C[C@@H](C)N[C@@H](C6CC6)C5)ccc4n3)cc2o1 [Compound 419] | 100 to 1000 nM | 100 to 1000 nM | 100 to 1000 nM |
| Cc1nc2cc(O)c(-c3ccc4nc(N5C[C@@H](C)N[C@@H](C)C5)ccc4n3)cc2o1 [Compound 420] | 100 to 1000 nM | 100 to 1000 nM | 100 to 1000 nM |
| Cc1nc2cc(O)c(-c3ccc4nc(N5CCN[C@H](C6CC6)C5)ccc4n3)cc2o1 [Compound 421] | 100 to 1000 nM | 100 to 1000 nM | 100 to 1000 nM |
| Cc1nc2cc(O)c(-c3ccc4nc(N5CCN[C@@H](C(C)C)C5)ccc4n3)cc2o1 [Compound 422] | 100 to 1000 nM | 100 to 1000 nM | 100 to 1000 nM |
| Cc1nc2cc(O)c(-c3ccc4nc(N5CCC(N)CC5)ccc4n3)cc2o1 [Compound 424] | 1000 to 10000 nM | 1000 to 10000 nM | 1000 to 10000 nM |
| CNC1CCN(c2ccc3nc(-c4cc5oc(C)nc5cc4O)ccc3n2)CC1 [Compound 425] | 1000 to 10000 nM | 1000 to 10000 nM | 1000 to 10000 nM |
| Cc1nc2c(C)c(O)c(-c3ccc4nc(N5CC[C@H](NC6CC6)C5)ncc4n3)cc2o1 [Compound 433, 6-{2-[(3S)-3-(cyclopropylamino)pyrrolidin-1-yl]pyrido[3,2-d]pyrimidin-6-yl}-2,4-dimethyl-1,3-benzoxazol-5-ol] | 100 to 1000 nM | 100 to 1000 nM | 100 to 1000 nM |
| Cc1nc2cc(O)c(-c3ccc4nc(N5CC[C@H](NC6CC6)C5)ncc4n3)cc2o1 [Compound 435, 6-{2-[(3S)-3-(cyclopropylamino)pyrrolidin-1-yl]pyrido[3,2-d]pyrimidin-6-yl}-2-methyl-1,3-benzoxazol-5-ol] | 100 to 1000 nM | 100 to 1000 nM | 100 to 1000 nM |
| Cc1nc2c(C)c(O)c(-c3ccc4nc(N5CC[C@@H](NC(C)(C)C)C5)ncc4n3)cc2o1 [Compound 436] | < 100 nM | < 100 nM | < 100 nM |
| Cc1nc2c(C)c(O)c(-c3ccc4nc(N5CC[C@H](NC(C)(C)C)C5)ncc4n3)cc2o1 [Compound 437] | 100 to 1000 nM | 100 to 1000 nM | 100 to 1000 nM |
